The source of these data is ChEMBL document CHEMBL1255320, “Anti-BK virus activity of nucleoside analogs” (Antimicrob Agents Chemother, 2008).

One data set has as its system BK polyomavirus. Kind of data set: Antimicrobial activity against BK polyomavirus ATCC VR837 infected in human WI38 cells assessed as reduction in viral titer after 7 days by PCR analysis. It counts as functional, organism-based. The settings on record: Betapolyomavirus hominis, ATCC VR837, WI-38, 168 h.
The nature of data set [1]: Cytotoxicity against human WI38 cells by neutral red assay. The class given is cell-based, WI-38.
The nature of data set [2]: Selectivity index, ratio of CC50 for human WI38 cells to EC50 for BK polyomavirus ATCC VR837. The class given is toxicity, cell-based, WI-38. Conditions: read-out: Selectivity Index.

Some results are limits rather than exact numbers.

What is called EC50 is the concentration at which the effect is half-maximal. A word on the CC50: it is the concentration at which the toxic effect on the cells reaches its halfway point. A higher CC50 goes with lower toxicity to the cells. `CCCCCCCC/C=C\CCCCCCCC(=O)Nc1ncnc2c1ncn2CCOCP(=O)(O)O`: in the data set on BK polyomavirus, the EC50 amounted to 1 µM. In addition, it took 165 µM to reach half-maximal cytotoxicity in data set [1] (CC50). Further, in data set [2], the selectivity ratio was 58.9.

`CCCCCCCCCCCCCCCCOCCCOP(=O)(O)CO[C@H](CO)Cn1cnc2c(N)ncnc21`: the EC50 with BK polyomavirus is 0.02 µM. Besides, the CC50 in data set [1] came out at 0.8 µM. Further, the selectivity ratio in data set [2] is 58.5.

As to `Nc1ncnc2c1ncn2/C=C1/CC1(CO)CO`, the 50% effective concentration (EC50) with BK polyomavirus was 40.8 µM. Also, the CC50 in data set [1] came out at 312 µM. The selectivity ratio in data set [2] came out at 11.9.

`Nc1ccn([C@@H]2CS[C@H](CO)O2)c(=O)n1` [LAMIVUDINE]: the concentration giving a half-maximal response (EC50) in the data set on BK polyomavirus is over 100 µM. The CC50 in data set [1] was over 100 µM. Further, the selectivity ratio in data set [2] stood at 1.

Turning to `Cc1cccc2c1OP(=O)(OC[C@H]1O[C@@H](n3cc(/C=C/Br)c(=O)[nH]c3=O)CC1O)OC2` (single isomer, unassigned), in the data set on BK polyomavirus, the EC50 stood at 41.9 µM. Further, the CC50 in data set [1] was 98.3 µM. The selectivity ratio in data set [2] was 2.3.

In the case of `CCCCCCCC/C=C\CCCCCCCCOC(=O)Nc1ncnc2c1ncn2CCOCP(=O)(O)O`, in the data set with BK polyomavirus, the EC50 was 2.3 µM. Besides, in data set [1], it took 529 µM to reach half-maximal cytotoxicity (CC50). The selectivity ratio in data set [2] was determined as 233.

For `Nc1ncnc2c1ncn2CCOCP(=O)(O)O` [ADEFOVIR], the EC50 with BK polyomavirus was 95.8 µM. Besides, half-maximal cytotoxicity in data set [1] (CC50) was put at 125 µM. Further, the selectivity ratio in data set [2] came to 1.3.

In the case of `CCCCCCCCCCCCCCCCCCOCCOP(=O)(O)CO[C@H](CO)Cn1cnc2c(N)ncnc21`, the EC50 with BK polyomavirus turned out to be 0.03 µM. The half-maximal cytotoxic concentration (CC50) in data set [1] came to 0.5 µM. For the same compound, the selectivity ratio in data set [2] stood at 11.7.

With `O=c1[nH]cnc2c1ncn2[C@H]1CC[C@@H](CO)O1` [DIDANOSINE], the half-maximal effective concentration (EC50) in the data set on BK polyomavirus was over 100 µM. Besides, the cytotoxic concentration (CC50) in data set [1] was over 100 µM. Further, the selectivity ratio in data set [2] was 1.

As to `CC(C)OC(=O)OCOP(=O)(CO[C@H](C)Cn1cnc2c(N)ncnc21)OCOC(=O)OC(C)C` [TENOFOVIR DISOPROXIL], the EC50 with BK polyomavirus is over 50 µM. The compound also showed a CC50 in data set [1] of over 50 µM. Also, the selectivity ratio in data set [2] is 1.

With `Nc1nc(O)c2ncn(/C=C3/CC3CO)c2n1` (stereo unspecified) [SYNGUANOL], the EC50 in the data set with BK polyomavirus was over 100 µM. The compound further gave a CC50 in data set [1] of over 100 µM. Also, in data set [2], the selectivity ratio was determined as 1.

Consider `CC(=O)OCC(CCn1cnc2cnc(N)nc21)COC(C)=O` [FAMCICLOVIR], for which the EC50 in the data set on BK polyomavirus is over 0.78 µM. In addition, the CC50 in data set [1] is over 0.78 µM. In addition, the selectivity ratio in data set [2] was 1.

Turning to `Cc1cn([C@H]2C[C@H](N=[N+]=[N-])[C@@H](CO)O2)c(=O)[nH]c1=O` [ZIDOVUDINE], the EC50 in the data set with BK polyomavirus is over 100 µM. For the same compound, in data set [1], the CC50 was over 100 µM. Moreover, the selectivity ratio in data set [2] worked out at 1.

Turning to `Cc1cn([C@H]2C=C[C@@H](CO)O2)c(=O)[nH]c1=O` [STAVUDINE], in the data set with BK polyomavirus, the EC50 was over 100 µM. In data set [1], this compound gave a CC50 of over 100 µM. Besides, in data set [2], the selectivity ratio was 1.

In the case of `Nc1nc2c(ncn2/C=C2/CC2(CO)CO)c(=O)[nH]1` [FILOCICLOVIR], the EC50 in the data set with BK polyomavirus is over 100 µM. The compound also gave a cytotoxic concentration (CC50) in data set [1] of over 100 µM. In data set [2], the selectivity ratio is 1.

As for `Nc1nc(=O)c2ncn(COCCOP3(=O)OCc4ccccc4O3)c2[nH]1` (stereo unspecified), the EC50 in the data set on BK polyomavirus is over 100 µM. For the same compound, the cytotoxic concentration (CC50) in data set [1] was determined as 100 µM. Further, the selectivity ratio in data set [2] stood at 1.

As to `CC(C)(C)C(=O)OCOP(=O)(COCCn1cnc2c(N)ncnc21)OCOC(=O)C(C)(C)C` [ADEFOVIR DIPIVOXIL], the EC50 with BK polyomavirus stood at 0.7 µM. Further, the CC50 in data set [1] amounted to 3.1 µM. Further, in data set [2], the selectivity ratio worked out at 5.7.
